pKi: −log10 of the molar value. *1 amine or outer side, *2 acyl side, *3 side chain or, on linkers, in order; H or OH if unused. Where a SMILES comes first, the peptide text is derived from it. Side-chain parts run from the residue outwards. The star is where a group is joined. C18 diacid = O=C(O)CCCCCCCCCCCCCCCCC(=O)*; γGlu = O=C(O)[C@H](CCC(=O)[*:2])N[*:1]; Isovaleryl = CC(C)CC(=O)*; Ahx = NCCCCCC(=O)O
Key:
[1] = target: T1, Human Neuropeptide Y2 Receptor (Homo sapiens, UniProt P49146); assay: Radioligand binding competition assay (RLB); conditions: Table 3, 125I-PYY(1-36) competition; read-out: Ki
T1 construct: purchased CHEMICON HTS066M
T1 sequence (P49146 1-381): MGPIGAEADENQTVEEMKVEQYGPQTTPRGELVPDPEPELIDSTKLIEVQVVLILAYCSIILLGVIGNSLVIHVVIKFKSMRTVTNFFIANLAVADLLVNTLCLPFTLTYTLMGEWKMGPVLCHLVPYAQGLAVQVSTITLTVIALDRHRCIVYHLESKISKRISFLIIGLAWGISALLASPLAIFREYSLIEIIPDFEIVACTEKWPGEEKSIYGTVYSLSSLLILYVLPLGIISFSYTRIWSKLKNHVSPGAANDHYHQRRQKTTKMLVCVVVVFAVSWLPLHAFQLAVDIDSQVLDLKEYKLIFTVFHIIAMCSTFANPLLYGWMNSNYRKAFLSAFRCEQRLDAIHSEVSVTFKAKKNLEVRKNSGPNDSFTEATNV
Outline: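 Peptides were serially diluted from 1 mM DMSO stocks and competed for radioligand binding to receptor membranes (0.5 μg/well) over 2 h at room temperature, pH 7.4 HEPES buffer. Bound radioactivity on filters was counted by scintillation, and IC50 was derived by nonlinear regression.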

Solubility determination = conditions: for Sol6: pH 6; for Sol7: pH 7
Outline: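 Solubility is derived from the ratio of reversed-phase peak areas, filtered sample over a control dissolved at 1 mg/ml in 50% acetonitrile. Peptides are agitated for 2 hours at room temperature in 0.1 M sodium diphosphate at pH 6.4 or 7.0, aiming at 10 mg/ml.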

| pKi [1] | Sol6 (Solubility determination) [mg/mL] | Sol7 (Solubility determination) [mg/mL] | Compound |
| --- | --- | --- | --- |
| 8.51 | 8.8 | 8.7 | CC(C)CC(=O)N[C@@H](C)C(=O)N1CCC[C@H]1C(=O)N[C@@H](CCC(=O)O)C(=O)N[C@@H](CCCCNC(=O)CCCCCNC(=O)CC[C@H](NC(=O)CCCCCCCCCCCCCCCCC(=O)O)C(=O)O)C(=O)N1CCC[C@H]1C(=O)N[C@@H](CCC(=O)O)C(=O)N[C@@H](CCC(=O)O)C(=O)N[C@@H](CO)C(=O)N[C@@H](C)C(=O)N[C@H](C(=O)N1CCC[C@H]1C(=O)N[C@@H](CCC(=O)O)C(=O)N[C@@H](CCC(=O)O)C(=O)N[C@@H](CC(C)C)C(=O)N[C@@H](CCC(N)=O)C(=O)N[C@@H](CCCNC(=N)N)C(=O)N[C@@H](Cc1ccc(O)cc1)C(=O)N[C@@H](Cc1ccc(O)cc1)C(=O)N[C@H](C(=O)N[C@@H](CO)C(=O)N[C@@H](CC(C)C)C(=O)N[C@@H](CCCNC(=N)N)C(=O)N[C@@H](Cc1c[nH]cn1)C(=O)N[C@@H](Cc1ccc(O)cc1)C(=O)N[C@@H](Cc1ccc(O)cc1)C(=O)N[C@@H](CC(N)=O)C(=O)N[C@@H](Cc1c[nH]c2ccccc12)C(=O)N[C@@H](CC(C)C)C(=O)N[C@H](C(=O)N[C@@H](CCCNC(=N)N)C(=O)N[C@@H](CCC(N)=O)C(=O)N[C@@H](CCCNC(=N)N)C(=O)N[C@@H](Cc1ccc(O)cc1)C(N)=O)[C@@H](C)O)C(C)C)[C@@H](C)O [Compound 96, N{alpha-4}-(3-methylbutanoyl)-N{epsilon-7}-(6-[(4S)-4-carboxy-4-(17-carboxyheptadecanamido)butanamido]hexanoyl)-[4A,7K,9E,11S,13T,18Q,22V,28Y,30W,31L]-hPYY(4-36)] |
| 8.44 | 7.3 | 8.8 | CC(C)CC(=O)N[C@@H](C)C(=O)N1CCC[C@H]1C(=O)N[C@@H](CCC(=O)O)C(=O)N[C@@H](CCCCNC(=O)CCCCCNC(=O)CC[C@H](NC(=O)CCCCCCCCCCCCCCCCC(=O)O)C(=O)O)C(=O)N1CCC[C@H]1C(=O)N[C@@H](CCC(=O)O)C(=O)N[C@@H](CCC(=O)O)C(=O)N[C@@H](CCC(=O)O)C(=O)N[C@@H](C)C(=O)N[C@@H](CO)C(=O)N1CCC[C@H]1C(=O)N[C@@H](C)C(=O)N[C@@H](CCC(=O)O)C(=O)N[C@@H](CC(C)C)C(=O)N[C@@H](CCC(N)=O)C(=O)N[C@@H](CCCNC(=N)N)C(=O)N[C@@H](Cc1ccc(O)cc1)C(=O)N[C@@H](Cc1ccc(O)cc1)C(=O)N[C@H](C(=O)N[C@@H](CO)C(=O)N[C@@H](CC(C)C)C(=O)N[C@@H](CCCNC(=N)N)C(=O)N[C@@H](Cc1c[nH]cn1)C(=O)N[C@@H](Cc1ccc(O)cc1)C(=O)N[C@@H](Cc1ccc(O)cc1)C(=O)N[C@@H](CC(N)=O)C(=O)N[C@@H](Cc1c[nH]c2ccccc12)C(=O)N[C@@H](CC(C)C)C(=O)N[C@H](C(=O)N[C@@H](CCCNC(=N)N)C(=O)N[C@@H](CCC(N)=O)C(=O)N[C@@H](CCCNC(=N)N)C(=O)N[C@@H](Cc1ccc(O)cc1)C(N)=O)[C@@H](C)O)C(C)C [Compound 139, N{alpha-4}-(3-methylbutanoyl)-N{epsilon-7}-(6-[(4S)-4-carboxy-4-(17-carboxyheptadecanamido)butanamido]hexanoyl)-[4A,7K,9E,11E,15A,18Q,22V,28Y,30W,31L]-hPYY(4-36)] (Isovaleryl-APEK([Ahx-γGlu-C18 diacid])PEEEASPAELQRYYVSLRHYYNWLTRQRY-NH2) |
| 8.22 | >10.0 | 9.9 | CC(C)CC(=O)N[C@@H](C)C(=O)N1CCC[C@H]1C(=O)N[C@@H](CCC(=O)O)C(=O)N[C@@H](CCCCNC(=O)CCCCCNC(=O)CC[C@H](NC(=O)CCCCCCCCCCCCCCCCC(=O)O)C(=O)O)C(=O)N1CCC[C@H]1C(=O)N[C@@H](CCC(=O)O)C(=O)N[C@@H](CCC(=O)O)C(=O)N[C@@H](CC(=O)O)C(=O)N[C@@H](C)C(=O)N[C@H](C(=O)N[C@@H](CCC(N)=O)C(=O)N[C@@H](CCC(=O)O)C(=O)N[C@@H](CCC(=O)O)C(=O)N[C@@H](CC(C)C)C(=O)N[C@@H](CCC(N)=O)C(=O)N[C@@H](CCCNC(=N)N)C(=O)N[C@@H](Cc1ccc(O)cc1)C(=O)N[C@@H](Cc1ccc(O)cc1)C(=O)N[C@H](C(=O)N[C@@H](CO)C(=O)N[C@@H](CC(C)C)C(=O)N[C@@H](CCCNC(=N)N)C(=O)N[C@@H](Cc1c[nH]cn1)C(=O)N[C@@H](Cc1ccc(O)cc1)C(=O)N[C@@H](Cc1ccc(O)cc1)C(=O)N[C@@H](CC(N)=O)C(=O)N[C@@H](Cc1c[nH]c2ccccc12)C(=O)N[C@@H](CC(C)C)C(=O)N[C@H](C(=O)N[C@@H](CCCNC(=N)N)C(=O)N[C@@H](CCC(N)=O)C(=O)N[C@@H](CCCNC(=N)N)C(=O)N[C@@H](Cc1ccc(O)cc1)C(N)=O)[C@@H](C)O)C(C)C)[C@@H](C)O [Compound 105, N{alpha-4}-(3-methylbutanoyl)-N{epsilon-7}-(6-[(4S)-4-carboxy-4-(17-carboxyheptadecanamido)butanamido]hexanoyl)-[4A,7K,9E,13T,14Q,18Q,22V,28Y,30W,31L]-hPYY(4-36)] |
| 8.55 | 9.3 | 9.2 | CC[C@H](C)[C@H](NC(=O)[C@H](CCC(=O)O)NC(=O)[C@H](CCC(=O)O)NC(=O)[C@@H]1CCCN1C(=O)[C@@H](NC(=O)[C@H](C)NC(=O)[C@H](CC(=O)O)NC(=O)[C@H](CCC(=O)O)NC(=O)[C@H](CCC(=O)O)NC(=O)[C@@H]1CCCN1C(=O)[C@H](CCCCNC(=O)CCCCCNC(=O)CC[C@H](NC(=O)CCCCCCCCCCCCCCCCC(=O)O)C(=O)O)NC(=O)[C@H](CCC(=O)O)NC(=O)[C@@H]1CCCN1C(=O)[C@H](C)NC(=O)CC(C)C)[C@@H](C)O)C(=O)N[C@@H](CCC(N)=O)C(=O)N[C@@H](CCCNC(=N)N)C(=O)N[C@@H](Cc1ccc(O)cc1)C(=O)N[C@@H](Cc1ccc(O)cc1)C(=O)N[C@@H](CCC(N)=O)C(=O)N[C@@H](CO)C(=O)N[C@@H](CC(C)C)C(=O)N[C@@H](CCCNC(=N)N)C(=O)N[C@@H](Cc1c[nH]cn1)C(=O)N[C@@H](Cc1ccc(O)cc1)C(=O)N[C@@H](Cc1ccc(O)cc1)C(=O)N[C@@H](CC(N)=O)C(=O)N[C@@H](Cc1c[nH]c2ccccc12)C(=O)N[C@@H](CC(C)C)C(=O)N[C@H](C(=O)N[C@@H](CCCNC(=N)N)C(=O)N[C@@H](CCC(N)=O)C(=O)N[C@@H](CCCNC(=N)N)C(=O)N[C@@H](Cc1ccc(O)cc1)C(N)=O)[C@@H](C)O [Compound 164, N{alpha-4}-(3-methylbutanoyl)-N{epsilon-7}-(6-[(4S)-4-carboxy-4-(17-carboxyheptadecanamido)butanamido]hexanoyl)-[4A,7K,9E,13T,17I,18Q,22Q,28Y,30W,31L]-hPYY(4-36)] |

From patent US12391737B2, “Soluble NPY2 receptor agonists” (Boehringer Ingelheim International GmbH, priority 2020, dated 2025)
